Columns and labels:
human Gal-3 (hGal-3) = human Gal-3 (hGal-3) (Homo sapiens (Human), UniProt P17931); assay: Competitive binding assay: binding of biotinylated hGal-3 to microplate-adsorbed asialofetuin (ASF); conditions: Activity on hGal-3; mean values of several measurements
Summary of the method: (§1)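 Biotin-hGal-3/hGal-1 300-1000 ng/mL + cpd (DMSO dilutions) on ASF-coated plate, 3 h 4° C; wash; SA-HRP 80 ng/mL 1 h 4° C; wash; ABTS. IC50 = mean of several runs. hGal-1 preferably Cys→Ser (all six) mutant.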

human Gal-1 (hGal-1) = assay: Competitive binding assay: binding of biotinylated hGal-1 to microplate-adsorbed asialofetuin (ASF); conditions: Activities on hGal-1; mean values of several measurements
Summary of the method: as §1

Chain of human Gal-3 (hGal-3) (P17931 whole entry): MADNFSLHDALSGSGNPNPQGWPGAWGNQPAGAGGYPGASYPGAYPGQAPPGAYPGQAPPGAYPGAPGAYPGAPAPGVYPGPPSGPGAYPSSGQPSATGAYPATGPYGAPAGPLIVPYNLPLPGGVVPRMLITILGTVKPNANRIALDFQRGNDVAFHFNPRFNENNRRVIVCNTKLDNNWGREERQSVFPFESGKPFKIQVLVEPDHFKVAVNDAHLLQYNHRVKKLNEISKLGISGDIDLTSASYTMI
Chain of human Gal-1 (hGal-1) (P09382 2-135 limits assumed): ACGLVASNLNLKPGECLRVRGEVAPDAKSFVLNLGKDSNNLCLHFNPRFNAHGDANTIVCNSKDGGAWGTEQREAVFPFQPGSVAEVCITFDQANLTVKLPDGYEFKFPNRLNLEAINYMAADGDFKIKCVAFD

Row | Structure (SMILES) | IC50 (human Gal-3 (hGal-3)) | IC50 (human Gal-1 (hGal-1))
1 | CO[C@@H]1[C@@H](n2cc(-c3ccc(Cl)c(F)c3F)nn2)[C@@H](O)[C@@H](CO)O[C@@H]1Cc1cc(-c2ccc(F)c(F)c2F)on1 [Ex 1.231] | 910 nM | > 100000 nM
2 | COc1cc(-c2cn([C@H]3[C@@H](O)[C@@H](CO)O[C@H](CC4CC(C5CCN(C(=O)OC(C)(C)C)CC5)=NO4)[C@@H]3O)nn2)cc(F)c1F (stereo partly shown) [Ex 1.108] | 180 nM | 1690 nM
3 | CO[C@@H]1[C@@H](n2cc(-c3cc(F)c(F)c(F)c3)nn2)[C@@H](O)[C@@H](CO)O[C@@H]1Cc1cc(-c2nc(Br)cs2)on1 [Ex 1.127] | 300 nM | 9840 nM
4 | CC(C)(C)OC(=O)N1CCC(C2=NOC(C[C@H]3O[C@H](CO)[C@H](O)[C@H](n4cc(-c5nc6ccccc6s5)nn4)[C@H]3O)C2)CC1 (stereo partly shown) [Ex 1.109] | 1600 nM | 210 nM
5 | CO[C@@H]1[C@@H](n2cc(-c3ccc(Cl)c(F)c3F)nn2)[C@@H](O)[C@@H](CO)O[C@@H]1Cc1cc(C2(C#N)CCCC2)no1 [Ex 1.293] | 93 nM | 2920 nM
6 | CO[C@@H]1[C@@H](n2cc(-c3cc(F)c(F)c(F)c3)nn2)[C@@H](O)[C@@H](CO)O[C@@H]1Cc1cc(C2(O)CCN(C(=O)OC(C)(C)C)CC2)on1 [Ex 1.132] | 69 nM | 760 nM
7 | OC[C@H]1O[C@H](CC2CC(c3ccncc3)=NO2)[C@H](O)[C@@H](n2cc(-c3cc(F)c(F)c(F)c3)nn2)[C@H]1O (stereo partly shown) [Ex 1.16] | 430 nM | 6620 nM
8 | CO[C@@H]1[C@@H](n2cc(-c3ccc(Br)c(F)c3F)nn2)[C@@H](O)[C@@H](CO)O[C@@H]1Cc1cc(C2CCCCC2)on1 [Ex 1.173] | 440 nM | 47800 nM
9 | CO[C@@H]1[C@@H](n2cc(-c3cc(F)c(F)c(F)c3)nn2)[C@@H](O)[C@@H](CO)O[C@@H]1Cc1cc(C2CCC(NC(=O)OC(C)(C)C)CC2)no1 (stereo partly shown) [Ex 1.134] | 84 nM | 10800 nM
10 | CC(C)(C)OC(=O)N1CCC(C2=NOC(C[C@H]3O[C@H](CO)[C@H](O)[C@H](n4cc(-c5cc(F)c(F)c(F)c5)nn4)[C@H]3OCC(F)F)C2)CC1 (mixture of isomers) [Example 2.32, tert-butyl 4-((RS)-5-(((2R,3R,4S,5R,6R)-3-(2,2-difluoroethoxy)-5-hydroxy-6-(hydroxymethyl)-4-(4-(3,4,5-trifluorophenyl)-1H-1,2,3-triazol-1-yl)tetrahydro-2H-pyran-2-yl)methyl)-4,5-dihydroisoxazol-3-yl)piperidine-1-carboxylate] | 350 nM | 2960 nM
11 | CO[C@@H]1[C@@H](n2cc(-c3cc(F)c(F)c(F)c3)nn2)[C@@H](O)[C@@H](CO)O[C@@H]1Cc1cc(C2CCN(C(=O)OC(C)(C)C)CC2)no1 [Ex 1.62] | 76 nM | 450 nM
12 | CO[C@@H]1[C@@H](n2cc(-c3cc(F)c(F)c(F)c3)nn2)[C@@H](O)[C@@H](CO)O[C@@H]1C[C@H]1CC([C@@H]2CCN(C)C(=O)C2)=NO1 [Ex 1.89] | 990 nM | 4110 nM

Second part, the compound after the results:

Row | IC50 (human Gal-3 (hGal-3)) | IC50 (human Gal-1 (hGal-1)) | Structure (SMILES)
13 | 57 nM | 240 nM | CN=S1(=O)CCC(n2cc(C[C@H]3O[C@H](CO)[C@H](O)[C@H](n4cc(-c5cc(F)c(F)c(F)c5)nn4)[C@H]3OC)nn2)CC1 (stereo partly drawn) [Example 4.18, 4-(4-(((2R,3R,4S,5R,6R)-5-hydroxy-6-(hydroxymethyl)-3-methoxy-4-(4-(3,4,5-trifluorophenyl)-1H-1,2,3-triazol-1-yl)tetrahydro-2H-pyran-2-yl)methyl)-1H-1,2,3-triazol-1-yl)-1-(methylimino)hexahydro-1l6-thiopyran 1-oxide]
14 | 25 nM | 170 nM | CO[C@@H]1[C@@H](n2cc(-c3cc(F)c(F)c(F)c3)nn2)[C@@H](O)[C@@H](CO)O[C@@H]1Cc1cn(C2CCS(=N)(=O)CC2)nn1 (stereo partly drawn) [Example 4.17, 4-(4-(((2R,3R,4S,5R,6R)-5-hydroxy-6-(hydroxymethyl)-3-methoxy-4-(4-(3,4,5-trifluorophenyl)-1H-1,2,3-triazol-1-yl)tetrahydro-2H-pyran-2-yl)methyl)-1H-1,2,3-triazol-1-yl)-1-iminohexahydro-1l6-thiopyran 1-oxide]
15 | 19 nM | 86 nM | CO[C@@H]1[C@@H](n2cc(-c3cc(F)c(F)c(F)c3)nn2)[C@@H](O)[C@@H](CO)O[C@@H]1Cc1cn(C2CCN(S(=N)(=O)C(C)(C)C)CC2)nn1 (stereo partly drawn) [Example 4.21, (2R,3R,4S,5R,6R)-2-(hydroxymethyl)-5-methoxy-6-((1-(1-(2-methylpropan-2-ylsulfonimidoyl)piperidin-4-yl)-1H-1,2,3-triazol-4-yl)methyl)-4-(4-(3,4,5-trifluorophenyl)-1H-1,2,3-triazol-1-yl)tetrahydro-2H-pyran-3-ol]
16 | 90 nM | 2990 nM | CO[C@@H]1[C@@H](n2cc(-c3cc(F)c(F)c(F)c3)nn2)[C@@H](O)[C@@H](CO)O[C@@H]1Cc1cc(C2CCN([S+]([O-])C(C)(C)C)CC2)on1 (mixture of isomers) [Example 3.55, (2R,3R,4S,5R,6R)-6-((5-(1-((RS)-tert-butylsulfinyl)piperidin-4-yl)isoxazol-3-yl)methyl)-2-(hydroxymethyl)-5-methoxy-4-(4-(3,4,5-trifluorophenyl)-1H-1,2,3-triazol-1-yl)tetrahydro-2H-pyran-3-ol]
17 | 290 nM | 1810 nM | CO[C@@H]1[C@@H](n2cc(-c3cc(F)c(F)c(F)c3)nn2)[C@@H](O)[C@@H](CO)O[C@@H]1CN1CC(C2CCN(C(=O)OC(C)(C)C)CC2)OC1=O (mixture of isomers) [Example 5.24, tert-butyl 4-((RS)-3-(((2R,3R,4S,5R,6R)-5-hydroxy-6-(hydroxymethyl)-3-methoxy-4-(4-(3,4,5-trifluorophenyl)-1H-1,2,3-triazol-1-yl)tetrahydro-2H-pyran-2-yl)methyl)-2-oxooxazolidin-5-yl)piperidine-1-carboxylate]
18 | 50 nM | 210 nM | CO[C@@H]1[C@@H](n2cc(-c3cc(F)c(F)c(F)c3)nn2)[C@@H](O)[C@@H](CO)O[C@@H]1C[C@@H]1CN(C2CCN(C(=O)OC(C)(C)C)CC2)C(=O)O1 [Example 5.15, tert-butyl 4-((R)-5-(((2R,3R,4S,5R,6R)-5-hydroxy-6-(hydroxymethyl)-3-methoxy-4-(4-(3,4,5-trifluorophenyl)-1H-1,2,3-triazol-1-yl)tetrahydro-2H-pyran-2-yl)methyl)-2-oxooxazolidin-3-yl)piperidine-1-carboxylate]
19 | 83 nM | 460 nM | CO[C@@H]1[C@@H](n2cc(-c3cc(F)c(F)c(F)c3)nn2)[C@@H](O)[C@@H](CO)O[C@@H]1CC1CN(C2CCN(C(=O)OC(C)(C)C)CC2)C(=O)O1 (mixture of isomers) [Example 5.09, tert-butyl 4-((RS)-5-(((2R,3R,4S,5R,6R)-5-hydroxy-6-(hydroxymethyl)-3-methoxy-4-(4-(3,4,5-trifluorophenyl)-1H-1,2,3-triazol-1-yl)tetrahydro-2H-pyran-2-yl)methyl)-2-oxooxazolidin-3-yl)piperidine-1-carboxylate]
20 | 25 nM | 760 nM | CO[C@@H]1[C@@H](n2cc(-c3cc(F)c(F)c(F)c3)nn2)[C@@H](O)[C@@H](CO)O[C@@H]1Cc1cc(C2CCN(S(=O)(=O)N3CCCC3)CC2)on1 [Example 3.64, (2R,3R,4S,5R,6R)-2-(hydroxymethyl)-5-methoxy-6-((5-(1-(pyrrolidin-1-ylsulfonyl)piperidin-4-yl)isoxazol-3-yl)methyl)-4-(4-(3,4,5-trifluorophenyl)-1H-1,2,3-triazol-1-yl)tetrahydro-2H-pyran-3-ol]
